Entries after “also recorded” stand apart in the source; their conditions may differ. Counter-ions that a name gives are not always drawn.
Columns and labels:
[1] = test system: variety of cell types; conditions: cited from earlier work
[2] = test system: hamster liver nuclei; test: Reconstitution of DNA fragmentation and nuclear morphological change in HeLa S-100 immunodepleted of cytochrome c; assay type: biochemical; conditions: 1 μg added to immunodepleted HeLa S-100, 1 mM dATP
Method: (§1) Cytochrome c present in the HeLa cell S-100 was immunodepleted as described in the Example 10. In FIG. 7A, 10 μl aliquots of HeLa S-100 (50 μg) (lanes 1 and 2), or 10 μl aliquots of HeLa S-100 immunodepleted of cytochrome c (lanes 3 and 4), or 10 μl of HeLa S-100 immunodepleted of cytochrome c supplemented with 0.2 μg Apaf-2 purified through the Mono S column (H) (lanes 5 and 6), bovine heart cytochrome c (B) (lanes 7 and 8), or rat liver cytochrome c (R) (lanes 9 and 10), were incubated with aliquots of 3 μl in vitro translated, ^35S-labeled CPP32 in the absence (lanes 1, 3, 5, 7, 9) or presence (lanes 2, 4, 6, 8, 10) of 1 mM dATP at 30° C. for 1 hr in a final reaction volume of 20 μl of buffer A. Samples were subjected to SDS-PAGE and transferred to a nitrocellulose filter which were then exposed to film for 16 hr at room temperature. In FIG. 7B, HeLa S-100 (50 μg) immunodepleted of cytochrome c were reconstituted with the indicated amount of Apaf-2 (purified through Mono S column step) in a CPP32 cleavage reaction as described in FIG. 7A. The cleaved products (p20) were quantified in a Fuji-1000 phosphorimager machine and plotted in comparison with that generated by HeLa S-100. In FIG. 7C, aliquots of 50 μl of HeLa S-100 (250 μg) (lanes 1 and 2), or 50 μl of HeLa S-100 immunodepleted of cytochrome c (lanes 3 and 4), or 50 μl of HeLa S-100 immunodepleted of cytochrome c supplemented with 1 μg apaf-2 purified through the Mono S column (H) (lanes 5 and 6), bovine heart cytochrome c (B) (lanes 7 and 8), or rat liver cytochrome c (R) (lanes 9 and 10), were incubated with aliquots of 6 μl hamster liver nuclei in the absence (lanes 1, 3, 5, 7, 9) or presence (lanes 2, 4, 6, 8, 10) of 1 mM dATP at 37° C. for 2 hr in a final reaction volume of 60 μl. The DNA were isolated as described in the Examples, analyzed on 2% agarose gel electrophoresis, and the DNA was visualized by ethidium bromide staining. In FIG. 7D, DNA fragmentation assays were carried out as in FIG. 7C using HeLa S-100 immunodepleted of cytochrome c alone (a,b) or supplemented with Apaf-2 purified through Mono S column step (c,d) in the absence (a,c) or presence of 1 mM dATP (b,d). After 2 hr incubation at 37° C., an aliquot of each reaction (30 μl) was stained with 4′,6′-diamidino-2-phenylindole (DAPI), and observed under a fluorescence microscope with a UV-2A combination filter.
To rule out the possibility that the Apaf-2 activity is due to a minor contaminating protein that co-purified with cytochrome c, an immunodepletion experiment was carried out using a monoclonal antibody against rat cytochrome c. This monoclonal antibody cross-reacts with purified Apaf-2. […]

[3] = test system: CPP32; test: Reconstitution of dATP-dependent CPP32 activation in HeLa S-100 immunodepleted of cytochrome c; assay type: biochemical, human; conditions: 0.2 μg added to immunodepleted HeLa S-100, 1 mM dATP
Method: as §1
To rule out the possibility that the Apaf-2 activity is due to a minor contaminating protein that co-purified with cytochrome c, an immunodepletion experiment was carried out using a monoclonal antibody against rat cytochrome c. This monoclonal antibody cross-reacts with purified Apaf-2. As shown in FIGS. 7A-7D, HeLa cell S-100 depleted of cytochrome c using the monoclonal anti-cytochrome c antibody lost the dATP-dependent activation of CPP32 and the ability to induce DNA fragmentation in the added nuclei (FIGS. 7A and 7C, lanes 3 and 4). Adding back either the purified Apaf-2 from HeLa cells or the commercial cytochrome c from bovine heart or rat liver to the immunodepleted extracts restored the dATP-dependent activation of CPP32 and DNA fragmentation (FIGS. 7A and 7C, lanes 5-10). The reconstitution of cytochrome c dependent-activation of CPP32 was evident with the addition of 0.01 μg (33 nM) of purified cytochrome c to the cytochrome c-depleted extracts (FIG. 7B).
CPP32 was translated and purified as described above. Aliquot of 3 μl of the in vitro translated CPP32 was incubated with the indicated protein fraction, nucleotides, and 1 mM additional MgCl2 at 30° C. for 1 hour in a final volume of 20 μl of buffer A. At the end of the incubation, 7 μl of 4×SDS sample buffer was added to each reaction. After boiling for 3 min, each sample was subjected to a 15% SDS-polyacrylamide gel electrophoresis (SDS-PAGE). The gel was transferred to a nitrocellulose filter which was subsequently exposed to a Kodak X-OMAT AR X-ray film (Eastman Kodak, Rochester, N.Y.) for 16 hr at room temperature. […]

[4] = test system: CPP32; test: Apaf-2 activity: recombining with phosphocellulose flow through fraction (Apaf-1) and 35S-labeled CPP32; assay type: biochemical, human; conditions: 0.2 μg protein with phosphocellulose flowthrough fraction, 1 mM dATP
Method: FIG. 3 illustrates fractionation and reconstitution of dATP-dependent activation of CPP32 by phosphocellulose chromatography. HeLa cell S-100 was subjected to phosphocellulose chromatography and the column flow through and bound material were collected as described in the Examples. Aliquots (10 μl) of HeLa S-100 (50 μg) (lanes 1 and 2), phosphocellulose flow through fraction (PC-FT) (lanes 3 and 4), phosphocellulose bound fraction (PC-B) (lanes 5 and 6), and the mixture of phosphocellulose flow through and bound material (lanes 7 and 8) were incubated with aliquots of 3 μl in vitro translated, ^35S-labeled CPP32 at 30° C. for 1 hr in the absence (lanes 1,3,5,7) or presence (lanes 2,4,6,8) of 1 mM dATP. The samples were subjected to SDS-PAGE, transferred to a nitrocellulose filter, and the filter was exposed to film for 16 hours at room temperature.
The Apaf-2 activity that bound to the phosphocellulose column was purified through the Mono S column as described in Example 7. […] In FIG. 4B, aliquots (30 μl) of the Mono-S fractions were subjected to 15% SDS-PAGE and the proteins were visualized by silver staining.
Aliquots of 0.2 μg of Apaf-2 purified through the Mono S column (lanes 1, 2), cytochrome c from bovine heart (lanes 3, 4), and rat liver (lanes 5, 6) were incubated with aliquots of 10 μl phosphocellulose flowthrough fraction and 3 μl in vitro translated, 35S-labeled CPP32 at 30° C. for 1 hr in a final volume of 20 μl buffer A in the absence (lanes 1,3,5) or presence of (lanes 2, 4, 6) 1 mM dATP. Samples were subjected to SDS-PAGE and transferred to a nitrocellulose filter which was then exposed to a film for 16 hr at room temperature.
To isolate the protein(s) required for the activation of CPP32, HeLa S-100 was loaded onto a phosphocellulose column, and the flow-through and bound fractions were collected. […] When the flowthrough and bound fractions were mixed, CPP32-activating activity was restored (lanes 7-8). […] The factor(s) that flow through the phosphocellulose column are designated apoptotic protease activating factor-1 (Apaf-1) and the factor that bound to the column is designated apoptotic protease activating factor-2 (Apaf-2). It is understood that “Apaf-1” may represent more than one protein or it may represent a combination of protein(s) and other factors.
Apaf-2 activity was assayed by recombining with Apaf-1 after purification by the following steps. First, the Apaf-2 fraction was subjected to 50% ammonium sulfate precipitation. All of the activity remained in the supernatant while most of the protein precipitated (Table I). The supernatant was loaded onto a phenyl-sepharose (hydrophobic interaction) column and the activity was eluted with 1 M ammonium sulfate. The eluate was passed through a gel filtration column; active fractions were subjected to sequential Mono Q (anion exchange) and Mono S (cation exchange) chromatography. The Apaf-2 activity flowed through the Mono Q column, and the flow through was directly loaded onto the Mono S column. Bound Apaf-2 activity was then eluted with a 100-300 mM NaCl linear salt gradient. The fractions from the Mono S column were collected and assayed. […] The active fractions were analyzed by SDS-PAGE (FIG. 4B). A protein of apparent molecular mass of 15 kDa was co-eluted with the activity. No other proteins were detected by silver staining in the active Apaf-2 fractions.
CPP32 was translated and purified as described above. […]

Compound | initiation of apoptosis [1] | restoration of DNA fragmentation [2] | restoration of dATP-dependent activation of CPP32 [3] | Apaf-2 activity (dATP-dependent activation of CPP32) [4]
COc1cc([C@@H]2c3cc4c(cc3[C@@H](O[C@@H]3O[C@@H]5CO[C@@H](C)O[C@H]5[C@H](O)[C@H]3O)[C@H]3COC(=O)[C@H]23)OCO4)cc(OC)c1O [etoposide] | act to initiate apoptosis |  |  | 
O=C1c2c(O)ccc(O)c2C(=O)c2c(NCCNCCO)ccc(NCCNCCO)c21 [mitoxantrone HCl] | act to initiate apoptosis |  |  | 
bovine heart cytochrome c: commercial cytochrome c from bovine heart (Sigma) |  | restored | restored | have Apaf-2 activity; also recorded: initiated dATP-dependent activation of CPP32 as efficiently as Apaf-2
rat liver cytochrome c: commercial cytochrome c from rat liver (Sigma) |  | restored | restored | have Apaf-2 activity; also recorded: initiated dATP-dependent activation of CPP32 as efficiently as Apaf-2

From patent publication US6558900B2, “Regulation of apoptosis and in vitro model for studies thereof” (Emory University, priority 1996, dated 2003)
